Experimental data published in patent US11096928B2, “Pharmaceutical composition” (WUHAN LL SCIENCE AND TECHNOLOGY DEVELOPMENT CO., LTD., priority 2016, dated 2021).

Legend:
[1] = tested on: spontaneously hypertensive rats; assay: Antihypertensive efficacy test of pharmaceutical compositions in spontaneously hypertensive rats; format: in vivo, rat; details: SHR, intragastric once a day, 28 days after administration
Procedure: After that, the blood pressure sensing catheter of hypertension implant was inserted into their abdominal aorta, while the implant was fixed to the abdominal wall, and then postoperative daily care was performed after suturing. […] A group of WKY rats (provided by Beijing Weitong Lihua Co., Ltd.) was set as a normal control group, which were administered intragastrically once a day at a volume calculated by 4 mL/kg for a total of 4 weeks. Each group were administered as follows: The normal control group were not administered; The blank control group were administered 0.5% CMC-Na; […] The valsartan group were administered valsartan dissolved in 0.5% CMC-Na, at a dose of 30 mg/kg; The Azilsartan kaMedoxoMil were administered Azilsartan kaMedoxoMil dissolved in 0.5% CMC-Na, at a dose of 1 mg (azilsartan effective dose)/kg; The AHU […] group were administered AHU 377 K, dissolved in 0.5% CMC-Na, at a dose of 30 mg/kg; The AHU377 ammonium salt group were administered AHU377 ammonium salt, dissolved in 0.5% CMC-Na, at a dose of 30 mg/kg; The LCZ696 group were administered LCZ696, dissolved in 0.5% CMC-Na, at a dose of 60 mg/kg; […]

[2] = tested on: chronic heart failure rats; assay: Therapeutic effect of pharmaceutical composition on chronic heart failure rats (high-salt fed DSS rats); format: in vivo, rat; details: high-salt (8% sodium chloride) fed DSS rats, administration for 7 weeks, analysis at 18-weeks-age
Procedure: Five-week-old male DSS rats (purchased from Beijing Weitong Lihua Experimental Animal Technology Co., Ltd.) were randomly divided into 10 groups, among which, one group were fed with low salt as normal control group and the other 9 groups were fed with high salt. The low-salt feeding group were administered 0.3% sodium chloride, and high-salt feeding group were administered 8% sodium chloride to induce hypertension-cardiac hypertrophy-heart failure to form pathological model. […] The rats were killed at 18-weeks-age for analysis of blood pressure and atrial natriuretic peptide (ANP).

[3] = tested on: rats with heart failure by coronary artery ligation (CAL); assay: Therapeutic effect of pharmaceutical compositions on acute heart failure caused by coronary artery ligation; format: in vivo, rat; details: Sprague-Dawley rats, after 4 weeks of continuous administration; for EF (left ventricular ejection fraction): cardiac ultrasound
Text: Male Sprague-Dawley rats (purchased from Beijing Weitong Lihua Experimental Animal Technology Co., Ltd.) were used to perform heart failure model by coronary artery ligation (CAL). One week after surgery, the myocardial infarct size of the rats was examined by echocardiography. […] Operations on the normal control group were the same as above, except for the absence of arterial ligation. Rats with successful modeling were randomly divided into 9 groups, wherein each group has 10 rats. […] Cardiac function was detected by cardiac ultrasound after 4 weeks of continuous administration, and changes of mean arterial pressure (MAP) and left ventricular ejection fraction (EF) were analyzed.

[4] = tested on: spontaneously hypertensive rats; assay: Antihypertensive efficacy test of the compound 1K in spontaneously hypertensive rats; format: in vivo, rat; details: SHR, intragastric, 1 mg/kg; for Heart rates change, 1 hour after administration / Systolic blood pressure change, 1 hour after administration / Heart rates change, 3 hours after administration / Systolic blood pressure change, 3 hours after administration / Heart rates change, 5 hours after administration / Systolic blood pressure change, 5 hours after administration / Heart rates change, 7 hours after administration / Systolic blood pressure change, 7 hours after administration / Heart rates change, 10 hours after administration / Systolic blood pressure change, 10 hours after administration / Heart rates change, 24 hours after administration / Systolic blood pressure change, 24 hours after administration / Heart rates change, before administration / Systolic blood pressure change, before administration: average ± standard error; for Heart rates change, before administration / Systolic blood pressure change, before administration: before administration (reference value)
Procedure: 12-week-old spontaneously hypertensive rats (hereinafter referred to as SHR, purchased from Beijing Weitong Lihua Experimental Animal Technology Co., Ltd.) were anesthetized with 2.5% sodium pentobarbital for intraperitoneal injection. After that, the blood pressure sensing catheter of hypertension implant was inserted into their abdominal aorta, while the implant was fixed to the abdominal wall, and then postoperative daily care was performed after suturing. Rats with systolic blood pressure exceeding 160 mm Hg were divided into 3 groups (control group, compound 1 group and compound 1K group), wherein each group has 8 rats. The control group was administrated 0.5% sodium carboxymethyl cellulose (hereinafter referred to as CMC-Na); the compound 1 group and the compound 1K group were respectively administered the compound 1 and the compound 1K, both of which were dissolved by 0.5% CMC-Na, by intragastric administration, at a dose of 1 mg/kg (calculated by the effective dose of valsartan) and a volume calculated by 4 mL/kg. The systolic blood pressure and heart rate of SHR were compared before and after administration (the systolic blood pressure and heart rate of SHR before administration as reference value), which were detected three times at each time point with the average value recorded.

SMILES | heart rate change [1] [times/minute] | systolic pressure change [1] [mmHg] | ANP rate of change [2] | systolic pressure change [2] | MAP (mean arterial pressure) [3] | EF (left ventricular ejection fraction) [3] | Heart rates change, 1 hour after administration [4] [times/minute] | Systolic blood pressure change, 1 hour after administration [4] [mmHg] | Heart rates change, 3 hours after administration [4] [times/minute] | Systolic blood pressure change, 3 hours after administration [4] [mmHg] | Heart rates change, 5 hours after administration [4] [times/minute] | Systolic blood pressure change, 5 hours after administration [4] [mmHg] | Heart rates change, 7 hours after administration [4] [times/minute] | Systolic blood pressure change, 7 hours after administration [4] [mmHg] | Heart rates change, 10 hours after administration [4] [times/minute] | Systolic blood pressure change, 10 hours after administration [4] [mmHg] | Heart rates change, 24 hours after administration [4] [times/minute] | Systolic blood pressure change, 24 hours after administration [4] [mmHg] | Heart rates change, before administration [4] [times/minute] | Systolic blood pressure change, before administration [4] [mmHg] | further results
CCOc1nc2cccc(C(=O)OCc3oc(=O)oc3C)c2n1Cc1ccc(-c2ccccc2-c2noc(=O)[n-]2)cc1.[K+] [Azilsartan kaMedoxoMil] | −11.1 ± 3.7 | −33.5 ± 3.2 | 132.3s^ % | −36.3sium mmHg | 150.4sium^ mmHg | 45.14siu % | – | – | – | – | – | – | – | – | – | – | – | – | – | – | –
CCOc1nc2cccc(C(=O)OC(C)OC(=O)OCc3nc(C)c(C)nc3C)c2n1Cc1ccc(-c2ccccc2-c2noc(=O)[nH]2)cc1 (centres unmarked) [Compound 1] | – | – | – | – | – | – | −3.4 ± 2.6 | −4.9 ± 4.8 | −2.33 ± 2.6 | −22.0 ± 3.6 | −6.5 ± 2.8 | −30.5 ± 3.5 | −6.2 ± 3.0 | −38.8 ± 2.3 | −12.3 ± 2.8 | −33.0 ± 1.7 | −6.7 ± 2.6 | −10.2 ± 2.1 | 0.0 ± 0.0 | 0.0 ± 0.0 | melting point: 135 to 145 °C
CCOC(=O)[C@H](C)C[C@@H](Cc1ccc(-c2ccccc2)cc1)NC(=O)CCC(=O)O.N [AHU377 ammonium salt, Ammonium 4-(((2S,4R)-1-([1,1′-biphenyl]-4-yl)-5-ethoxy-4-methyl-5-oxopentane-2-yl)amino)-4-oxobutanoate] | 3 ± 2.1 | −18.5 ± 2.5 | 135.3p % | −18.3p am mmHg | 172oup mmHg | – | – | – | – | – | – | – | – | – | – | – | – | – | – | – | –
CCOC(=O)[C@H](C)C[C@@H](Cc1ccc(-c2ccccc2)cc1)NC(=O)CCC(=O)[O-].[K+] [AHU 377K, potassium 4-(((2S,4R)-1-([1,1′-biphenyl]-4-yl)-5-ethoxy-4-methyl-5-oxopentan-2-yl)amino)-4-oxobutanoate] | −8.1 ± 2.8 | −15.6 ± 2.5 | 143.6p % | −20.6p7Km mmHg | 170.6p7K mmHg | 37.46p7K % | – | – | – | – | – | – | – | – | – | – | – | – | – | – | –
CCCCC(=O)N(Cc1ccc(-c2ccccc2-c2nnn[nH]2)cc1)[C@H](C(=O)O)C(C)C [valsartan] | −10.6 ± 3.2 | −30.6 ± 3.5 | 125 ± 52% | −32.4 ± 4.6 mmHg | – | 35.3arta^ % | – | – | – | – | – | – | – | – | – | – | – | – | – | – | –
CCOc1nc2cccc(C(=O)OC(C)OC(=O)OCc3nc(C)c(C)nc3C)c2n1Cc1ccc(-c2ccccc2-c2noc(=O)[n-]2)cc1.[K+] (centres unmarked) [Compound 1K] | −29.3 ± 4.1 | −50.4 ± 4.7 | 158 ± 7% | −48.5 ± 7.5 mmHg | 145.5 ± 8.9 mmHg | 48.6 ± 5.3% | −3.6 ± 2.4 | −7.0 ± 3.4 | −5.0 ± 2.5 | −34.3 ± 1.9 | −10.1 ± 3.0 | −46.5 ± 2.5 | −17.5 ± 3.0 | −49.4 ± 4.1 | −25.4 ± 2.4 | −45.3 ± 3.3 | −28.6 ± 8 | −25.9 ± 3.4 | 0.0 ± 0.0 | 0.0 ± 0.0 | antihypertensive effect compared with the compound 1 group ([4]; result in words): more potent with longer-lasting antihypertensive effect; effect of lowering heart rate compared with the compound 1 group ([4]; result in words): more potent with longer-lasting effect of lowering heart rate
